Measured values published in the supplement of paper PMC10307832.

Legend:
Assay in all cases: relative viability (nuclei count vs DMSO), 5 days (fraction); higher = more cells survive
Erlotinib + OSI-027 = compound: C#Cc1cccc(Nc2ncnc3cc(OCCOC)c(OCCOC)cc23)c1 [Erlotinib] + COc1cccc2cc(-c3nc([C@H]4CC[C@H](C(=O)O)CC4)n4ncnc(N)c34)[nH]c12 [OSI-027] (partner 0.5 µM)
In short: (§1)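 Lung cancer cell lines, seeded in 1536-well plates, were treated the following day by pin tool with a single drug or with five library-drug doses (not always all listed) in √10 steps on top of a fixed anchor-drug dose. Cells were fixed and nuclei stained in one step after 5 days, and nuclei were counted. Relative viability is the nuclei count for treated wells divided by that for vehicle wells, reported as medians of duplicate plates.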

Erlotinib + Vorinostat = compound: C#Cc1cccc(Nc2ncnc3cc(OCCOC)c(OCCOC)cc23)c1 [Erlotinib] + O=C(CCCCCCC(=O)Nc1ccccc1)NO [Vorinostat] (partner 1 µM)
In short: as §1

AT9283 + Pictilisib = compound: O=C(Nc1c[nH]nc1-c1nc2ccc(CN3CCOCC3)cc2[nH]1)NC1CC1 [AT9283] + CS(=O)(=O)N1CCN(Cc2cc3nc(-c4cccc5[nH]ncc45)nc(N4CCOCC4)c3s2)CC1 [Pictilisib] (partner 1 µM)
In short: as §1

AT9283 + Olaparib = compound: O=C(Nc1c[nH]nc1-c1nc2ccc(CN3CCOCC3)cc2[nH]1)NC1CC1 [AT9283] + O=C(c1cc(Cc2n[nH]c(=O)c3ccccc23)ccc1F)N1CCN(C(=O)C2CC2)CC1 [Olaparib] (partner 8 µM)
In short: as §1

AT9283 + Foretinib = compound: O=C(Nc1c[nH]nc1-c1nc2ccc(CN3CCOCC3)cc2[nH]1)NC1CC1 [AT9283] + COc1cc2c(Oc3ccc(NC(=O)C4(C(=O)Nc5ccc(F)cc5)CC4)cc3F)ccnc2cc1OCCCN1CCOCC1 [Foretinib] (partner 0.25 µM)
In short: as §1

| Cell Line | relative viability (Erlotinib + OSI-027; first compound 0.02 µM) | relative viability (Erlotinib + OSI-027; first compound 0.2 µM) | relative viability (Erlotinib + OSI-027; first compound 0.6325 µM) | relative viability (Erlotinib + OSI-027; first compound 2 µM) | relative viability (Erlotinib + Vorinostat; first compound 0.02 µM) | relative viability (Erlotinib + Vorinostat; first compound 0.2 µM) | relative viability (Erlotinib + Vorinostat; first compound 0.6325 µM) | relative viability (Erlotinib + Vorinostat; first compound 2 µM) | relative viability (AT9283 + Pictilisib; first compound 0.003 µM) | relative viability (AT9283 + Pictilisib; first compound 0.03 µM) | relative viability (AT9283 + Pictilisib; first compound 0.09487 µM) | relative viability (AT9283 + Pictilisib; first compound 0.3 µM) | relative viability (AT9283 + Olaparib; first compound 0.003 µM) | relative viability (AT9283 + Olaparib; first compound 0.03 µM) | relative viability (AT9283 + Olaparib; first compound 0.09487 µM) | relative viability (AT9283 + Olaparib; first compound 0.3 µM) | relative viability (AT9283 + Foretinib; first compound 0.003 µM) | relative viability (AT9283 + Foretinib; first compound 0.03 µM) | relative viability (AT9283 + Foretinib; first compound 0.09487 µM) | relative viability (AT9283 + Foretinib; first compound 0.3 µM) |
| --- | --- | --- | --- | --- | --- | --- | --- | --- | --- | --- | --- | --- | --- | --- | --- | --- | --- | --- | --- | --- |
| HCC-44 | 0.505 | 0.571 | 0.412 | 0.435 | 1.21 | 1.13 | 1.13 | 1.16 | 0.598 | 0.627 | 0.151 | 0.123 | 1.01 | 0.963 | 0.724 | 0.817 |  |  |  |  |
| HCC-78 | 0.333 | 0.359 | 0.379 | 0.281 | 0.428 | 0.437 | 0.36 | 0.335 | 0.211 | 0.218 | 0.123 | 0.151 | 0.909 | 0.599 | 0.273 | 0.249 | 0.5 | 0.485 | 0.331 | 0.305 |
| HCC-366 | 0.969 | 0.805 | 0.468 | 0.438 | 0.41 | 0.363 | 0.369 | 0.222 | 0.145 | 0.152 | 0.0339 | 0.0503 | 0.362 | 0.262 | 0.113 | 0.0721 | 0.962 | 0.881 | 0.0841 | 0.0697 |
| HCC-827 | 0.411 | 0.15 | 0.112 | 0.126 | 0.228 | 0.186 | 0.121 | 0.132 | 0.822 | 0.775 | 0.457 | 0.504 | 0.702 | 0.53 | 0.344 | 0.255 | 1.05 | 0.745 | 0.331 | 0.244 |
| HOP-62 | 0.917 | 0.848 | 1.04 | 0.754 | 0.714 | 0.492 | 0.759 | 0.716 | 0.645 | 0.351 | 0.19 | 0.146 | 0.514 | 0.308 | 0.137 | 0.201 | 1.12 | 0.667 | 0.324 | 0.321 |
| IA-LM |  |  |  |  | 0.905 | 0.72 |  | 0.744 | 0.379 | 0.271 | 0.143 | 0.143 | 0.998 | 0.524 | 0.243 | 0.145 | 1.21 | 0.391 | 0.105 | 0.0774 |
| LC-2-ad |  | 0.837 | 0.725 | 0.475 | 0.731 | 0.794 | 0.75 | 0.589 | 0.396 | 0.194 | 0.0807 | 0.0727 | 0.708 | 0.647 | 0.304 | 0.196 | 0.881 | 0.71 | 0.336 | 0.225 |
| LCLC-97TM1 | 0.697 | 0.553 | 0.504 | 0.489 |  | 0.503 | 1.01 | 0.596 | 0.171 | 0.141 | 0.0991 | 0.114 | 0.41 | 0.233 | 0.103 | 0.0959 | 0.938 | 0.49 | 0.163 | 0.176 |
| LCLC-103H | 0.537 | 0.469 | 0.43 | 0.417 | 0.837 | 0.732 | 0.796 | 0.685 | 0.536 | 0.427 | 0.251 | 0.291 | 0.77 | 0.784 | 0.467 | 0.37 | 0.737 | 0.732 | 0.258 | 0.219 |
| LK-2 | 0.202 | 0.211 | 0.21 | 0.192 | 0.264 | 0.454 | 0.419 | 0.304 | 0.602 | 0.22 | 0.219 | 0.248 | 0.742 | 0.312 | 0.113 | 0.103 | 0.965 | 0.31 | 0.159 | 0.129 |
| NCI-H522 | 0.749 | 0.672 | 0.816 | 0.66 | 0.949 | 0.832 | 0.869 | 0.762 |  |  |  |  | 0.619 | 0.553 | 0.453 | 0.575 |  |  |  |  |
| NCI-H1299 |  |  |  |  |  |  |  |  | 0.731 | 0.238 | 0.116 | 0.112 | 0.911 | 0.657 | 0.366 | 0.316 | 1.13 | 0.541 | 0.415 | 0.373 |
| NCI-H1563 | 0.768 | 0.867 | 0.801 | 0.663 |  |  |  |  | 0.572 | 0.606 | 0.585 | 0.54 |  |  |  |  | 0.906 | 0.765 | 0.708 | 0.633 |
| NCI-H1623 | 0.398 | 0.366 | 0.297 | 0.256 |  |  |  |  |  |  |  |  |  |  |  |  | 0.91 | 0.837 | 0.612 | 0.487 |
| NCI-H1648 | 0.251 | 0.283 | 0.246 | 0.298 | 0.528 | 0.304 | 0.501 | 0.278 |  |  |  |  | 0.636 | 0.584 | 0.254 | 0.461 |  |  |  |  |
| NCI-H1703 |  |  |  |  |  |  |  |  | 0.234 | 0.216 | 0.205 | 0.196 | 0.383 | 0.155 | 0.169 | 0.229 | 0.335 | 0.254 | 0.273 | 0.228 |
| NCI-H1792 | 0.728 | 0.561 | 0.586 | 0.362 |  |  |  |  | 0.215 | 0.334 | 0.0902 | 0.0932 | 0.468 | 0.491 | 0.358 | 0.252 |  |  |  |  |
| NCI-H2342 | 0.596 | 0.635 | 0.556 | 0.55 | 0.615 | 0.851 | 0.801 | 0.789 |  |  |  |  | 0.476 | 0.434 | 0.384 | 0.292 | 1.2 | 1.01 | 0.547 | 0.367 |
| SW 900 | 0.584 | 0.598 | 0.642 | 0.374 | 0.683 | 0.439 | 0.523 | 0.448 |  |  |  |  | 0.882 | 0.783 | 0.507 | 0.312 | 1.1 | 0.898 | 0.866 | 0.366 |
